# Measurements taken from patent US20090253644A1, “Radiosensitizer” (TOYO SUISAN KAISHA, LTD., priority 2004, published 2009).
# Where “and” joins values, the source holds several entries; their conditions need not be identical. Equal entries are not always repeated.
# Legend:
# [1] = tested on: Bovine aortic endothelial cells (BAEC); assay: Colony assay on vascular endothelial cells with 60Co γ-ray irradiation; assay type: cell-based; design: key to actually measured SF value of combined use group / actually measured SF value of combined use: SF = colonies/seeded cells×(PE/100); PE = control colony formation rate; settings: for SF (cell surviving fraction), administration alone: 24 hours, no irradiation
# Description: Bovine aortic endothelial cells (BAEC) were appropriately seeded on a petri dish, and adhesion of cells was confirmed after 2 to 3 hours. In a group of α-SQMG C18:0 administration alone and a combined use group, the cells were treated with 10 μM of α-SQMG C18:0. After 24 hours, a medium was exchanged in all test groups, and 4 Gy of ^60Co γ-ray was irradiated in a group of irradiation alone and a combined use group. After the cells were cultured in a CO2 incubator at 37° C. for 10 to 12 days, formed colonies were fixed with formalin, and stained with a crystal violet staining solution. On each plate, the number of colonies consisting of about 50 or more cells was counted, and cell surviving fraction (SF) was obtained according to the following equation.
# SF (cell surviving fraction)=number of colonies/number of seeded cells×(PE/100)
# Herein, PE (plating efficiency) represents a colony formation rate (%) on a plate of a control.
# An experiment was performed three times, and an average of them was calculated.
# The same experiment as that of Experimental Example 2-1 was performed except that a radiation dose 6 Gy was irradiated in place of 4 Gy used in Experimental Example 2-1. […]
# [2] = tested on: human tongue squamous carcinoma cells (SAS cells); assay: Animal experiment: SAS tumor-transplanted nude mice, tumor growth delay with X-ray irradiation; assay type: in vivo; settings: for enhancement ratio (ER): tumor volume 500 mm^3
# From the text: Nude mice were assigned to four groups (control group; single use group of the present radiosensitizer administration; single use group of irradiation; and combined use group of irradiation and the present radiosensitizer administration; 4 mice per group). 1.0×10^6 human tongue squamous carcinoma cells (SAS cells) were suspended in PBS(−), and the suspension was transplanted subcutaneously into a right thigh of each mouse. After 10 to 14 days, when tumor volume became a desired value in a range of about 50 mm^3 to about 100 mm^3, each mouse was subjected to treatment according to each group. As a radiosensitizer, 3-O-(6-deoxy-6-sulfo-α-D-glucopyranosyl)-1-O-stearoyl-glycerol sodium salt (hereinafter, also referred to as “α-SQMG C18:0”) was used. Regarding the single use group of irradiation, X-ray was irradiated two times (at the time of treatment initiation (day 0) and on day 6 after the treatment initiation) at a dose of 8 Gy. Regarding the single use group of α-SQMG C18:0 administration, the sensitizer was intraperitoneally administered two times (day 0 and day 6) at a concentration of 1 mg/kg. Regarding the combined use group, each mouse of the group was treated with both of irradiation and α-SQMG C18:0 administration. Regarding the control group, neither irradiation nor α-SQMG C18:0 administration was performed. Thereafter, a short diameter and a long diameter of a tumor were measured with a micrometer caliper over a period of 16 to 23 days. Tumor volume was calculated by the following equation, and the tumor growth delaying effect was compared.
# Equation for calculating tumor volume:
# tumor volume (mm^3)=(short diameter)^2×(long diameter)×0.5
# (§1) The same experiment as that of Experimental Example 1-1 was performed except that irradiation was performed at the time of treatment initiation (day 0) and on day 4 after the treatment initiation, administration of α-SQMG C18:0 was performed only on day 0, and measurement of tumor size was performed over a period of 26 days.
# In order to express numerically this synergistic effect, ER (enhancement ratio) was calculated by the following equation. ER is a value defined by the literature (Int., J. Radiation Oncology Bio. Phys. Vol. 55, No. 3, pp. 713-723 (2003)), and ER will be explained below based on the definition.
# ER=NGD÷TGD in the case of X-ray irradiation alone
# In the equation, “TGD (tumor growth delay)” indicates delay of days necessary for tumor volume to reach a predetermined size in each test group as compared with a control group. That is, this is expressed by the following equation. In the Examples of the present invention, the predetermined size of tumor volume is 500 mm^3, unless otherwise indicated.
# TGD=(number of days necessary for tumor volume to reach 500 mm^3 in test group)−(number of days necessary for tumor volume to reach 500 mm^3 in control group)
# “NGD (normalized growth delay)” is expressed by the following equation.
# NGD=(TGD in the case of combined use)−(TGD in the case of drug administration alone)
# According to the aforementioned literature, it can be said that the anti-tumor effect is synergistic, when an enhancement ratio (ER) obtained by the above equation exceeds 1.0.
# as §1, with “3” for “4”, “initiation,” for “initiation, administration of”, “administered once a” for “performed only on”, “from day 0 to day 4,” for “0,”, “35” for “26”
# In the present Experimental Example, an experiment was performed in the same manner as in the above Experimental Example except that irradiation was performed at a dose of 2 Gy per fraction everyday from the time of treatment initiation (day 0) to day 4, and administration of α-SQMG C18:0 was performed everyday from day 0 to day 4. Details of the experiment will be described below.
# Four nude mice (eight weeks old) were randomly assigned to each of four groups. […]
# [3] = Exp. Ex. 1-2: X-ray 8 Gy day 0 and day 4, 1 mg/kg i.p. day 0 only
# [4] = Exp. Ex. 1-3: X-ray 8 Gy day 0 and day 3, 1 mg/kg i.p. once a day day 0 to 4
compound,measurement,setting,value
"CCCCCCCCCCCCCCCCCC(=O)OCC(O)CO[C@H]1O[C@H](CS(=O)(=O)[O-])[C@@H](O)[C@H](O)[C@H]1O.[Na+] (stereo partly drawn) [α-SQMG C18:0, 3-O-(6-deoxy-6-sulfo-α-D-glucopyranosyl)-1-O-stearoyl-glycerol sodium salt]",actually measured SF value of combined use,[1]; 5 μM + 2 Gy 60Co γ-ray,0.1370
same,theoretical additive point of combined use (SF),[1]; 5 μM + 2 Gy 60Co γ-ray,0.6012
same,"SF (cell surviving fraction), administration alone",[1]; 5 μM,1.0094
same,actually measured SF value of combined use,[1]; 10 μM + 2 Gy 60Co γ-ray,0.0644
same,theoretical additive point of combined use (SF),[1]; 10 μM + 2 Gy 60Co γ-ray,0.5620
same,actually measured SF value of combined use group,[1]; 10 μM + 4 Gy 60Co γ-ray,0.0640
same,theoretical additive point of combined use (SF),[1]; 10 μM + 4 Gy 60Co γ-ray,0.0974
same,actually measured SF value of combined use group,[1]; 10 μM + 6 Gy 60Co γ-ray,0.0180
same,theoretical additive point of combined use (SF),[1]; 10 μM + 6 Gy 60Co γ-ray,0.0505
same,"SF (cell surviving fraction), administration alone","[1]; 10 μM, sodium salt",0.616 and 0.9433
same,synergistic effect of combined use with radiation on suppression of proliferation of vascular endothelial cells,"[1]; 10 μM, 4 Gy and/or 6 Gy",considerably great synergistic effect
same,"cell proliferation suppressing effect, treatment alone","[1]; Exp. Ex. 2-5: 0 to 25 μM, 0 Gy",cell proliferation suppressing effect is not obtained
same,"effect of irradiation on suppression of cell proliferation, combined use","[1]; Exp. Ex. 2-5: 0 to 25 μM, 2 to 8 Gy 60Co γ-ray",increased
same,"anti-tumor effect (tumor volume), combined use with irradiation","[2]; Exp. Ex. 1-1: X-ray 8 Gy day 0 and day 6, 1 mg/kg i.p. day 0 and day 6",anti-tumor effect far exceeding the anti-tumor effect attained by irradiation
same,"anti-tumor effect (tumor volume), combined use with irradiation",[2]; [3],anti-tumor effect far exceeding the anti-tumor effect attained by irradiation
same,enhancement ratio (ER),[2]; [3],2.0
same,"anti-tumor effect (tumor volume), combined use with irradiation",[2]; [4],anti-tumor effect far exceeding the anti-tumor effect attained by irradiation
same,enhancement ratio (ER),[2]; [4],3.0
same,"anti-tumor effect (tumor volume), combined use with irradiation","[2]; Exp. Ex. 1-4: X-ray 2 Gy once a day day 0 to 4 (total 10 Gy), 1 mg/kg i.p. once a day day 0 to 4",anti-tumor effect exceeding the anti-tumor effect attained by irradiation alone
same,enhancement ratio (ER),"[2]; Exp. Ex. 1-4: X-ray 2 Gy once a day day 0 to 4, 1 mg/kg i.p. once a day day 0 to 4",1.8
